Data published in patent US8912121B2, “Herbicidal compositions comprising 4-amino-3-chloro-5-fluoro-6-(4-chloro-2-fluoro-3-methoxyphenyl)pyridine-2-carboxylic acid or a derivative thereof and certain PS II inhibitors” (Dow Agrosciences LLC, priority 2012, dated 2014).

Test system: CYPRO (Cyperus rotundus, purple nutsedge)
Assay: In-water applied mixtures, transplanted paddy rice, greenhouse
Assay type: in vivo, Cyperus rotundus L.
Settings: 19 DAA
Procedure: Weed seeds or nutlets of the desired test plant species were planted in puddled soil (mud) prepared by mixing a shredded, non-sterilized mineral soil (50.5 percent silt, 25.5 percent clay, and 24 percent sand, with a pH of about 7.6 and an organic matter content of about 2.9 percent) and water at a 1:1 volumetric ratio. The prepared mud was dispensed in 365 mL aliquots into 16-ounce (oz.) non-perforated plastic pots with a surface area of 86.59 square centimeters (cm^2) leaving a headspace of 3 centimeters (cm) in each pot Mud was allowed to dry overnight prior to planting or transplanting. Rice seeds were planted in Sun Gro MetroMix® 306 planting mixture, which typically has a pH of 6.0 to 6.8 and an organic matter content of about 30 percent, in plastic plug trays. Seedlings at the second or third leaf stage of growth were transplanted into 840 mL of mud contained in 32-oz. non-perforated plastic pots with a surface area of 86.59 cm^2 4 days prior to herbicide application. The paddy was created by filling the headspace of the pots with 2.5 to 3 cm of water. When required to ensure good germination and healthy plants, a fungicide treatment and/or other chemical or physical treatment was applied. The plants were grown for 4-22 days in a greenhouse with an approximate 14 h photoperiod which was maintained at about 29° C during the day and 26° C. during the night. Nutrients were added as Osmocote® (19:6:12, N:P:K+ minor nutrients) at 2 g per 16-oz. pot and 4 g per 32-oz. pot. Water was added on a regular basis to maintain the paddy flood, and supplemental lighting was provided with overhead metal halide 1000-Watt lamps as necessary. The plants were employed for testing when they reached the first through fourth true leaf stage.
Treatments consisted of the acid or esters of 4-amino-3-chloro-5-fluoro-6-(4-chloro-2-fluoro-3-methoxy-phenyl)pyridine-2-carboxylic acid (compound A) each formulated as an SC (suspension concentrate) and various herbicidal components alone and in combination. Forms of compound A were applied on an acid equivalent basis.
Other herbicidal components were applied on an active ingredient basis and included photosystem II (PSII)-inhibits propanil formulated as […] bentazon-sodium formulated as Basagran®, and simetryne (technical grade material).
Treatment requirements for each compound or herbicidal component were calculated based upon the rates being tested, the concentration of active ingredient or acid equivalent in the formulation, an application volume of 2 mL per component per pot, and an application area of 86.59 cm^2 per pot.
For formulated compounds, a measured amount was placed in an individual 100 or 200 mL glass vial and was dissolved in a volume of 1.25% (v/v) Agri-Dex® crop oil concentrate to obtain application solutions.
For technical grade compounds, a weighed amount was placed in an individual 100 to 200 mL glass vial and was dissolved in a volume of acetone to obtain concentrated stock solutions. […] The concentrated stock solutions obtained were diluted with an equivalent volume of an aqueous mixture containing 2.5% (v/v) crop oil concentrate so that the final application solutions contained 1.25% (v/v) crop oil concentrate.
Applications were made by injecting with a pipetter appropriate amounts of the application solutions, individually and sequentially, into the aqueous layer of the paddy. Control plants were treated in the same manner with the solvent blank. Applications were made so that all treated plant material received the same concentrations of acetone and crop oil concentrate.
The treated plants and control plants were placed in a greenhouse as described above and water was added as needed to maintain a paddy flood. After approximately 3 weeks the condition of the test plants as compared with that of the untreated plants was determined visually and scored on a scale of 0 to 100 percent where 0 corresponds to no injury or growth inhibition and 100 corresponds to complete kill. […]

COc1c(Cl)ccc(-c2nc(C(=O)OCc3ccccc3)c(Cl)c(N)c2F)c1F [Compound A Benzyl Ester, benzyl ester of 4-amino-3-chloro-5-fluoro-6-(4-chloro-2-fluoro-3-methoxy-phenyl)pyridine-2-carboxylic acid]
Visual Weed Control (%) Obs (8 g ae/ha): 50% | Visual Weed Control (%) Obs (16 g ae/ha): 85% | Visual Weed Control (%) Obs (32 g ae/ha): 90%
